# According to patent US20240400555A1 (Initial Therapeutics, Inc., priority 2023, published 2024):
# Read-outs that look alike come from different tables or passages of the source.
# System: MV-4-11 cells
# Assay: Cell Viability Assay in MV-4-11 Cells
# Assay type: cell-based
# In short: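 MV-4-11 cells at 7,000/well in IMDM with 10% FBS, exposed to compound for 72 h. Viability by CellTiter-Glo luminescence, normalized to DMSO as 100%, fitted with a four-parameter curve.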
# [1] = Homo sapiens, MV4-11, 72 h, MV-4-11 cells, 72 h, Cell-Titer Glo, read-out: IC50
SMILES,IC50 [1],other results
"CNC(=O)c1ccc(-c2cc3c(N(C(=O)c4ccc(-c5cn(C)nn5)cc4F)[C@@H]4CCCNC4)nccc3s2)cc1 [Example 521, (R)-2-fluoro-4-(1-methyl-1H-1,2,3-triazol-4-yl)-N-(2-(4-(methylcarbamoyl)phenyl)thieno[3,2-c]pyridin-4-yl)-N-(piperidin-3-yl)benzamide]",0.76 µM,
"CC(C)NC(=O)c1ccc(-c2cc3c(N(C(=O)c4ccc(-c5cn(C)nn5)cc4F)[C@@H]4CCCNC4)nccc3s2)cc1 [Example 522, 2-fluoro-N-[2-[4-(isopropylcarbamoyl)phenyl]thieno[3,2-c]pyridin-4-yl]-4-(1-methyltriazol-4-yl)-N-[(3R)-3-piperidyl]benzamide]",0.77 µM,
"Cn1cc(-c2ccc(C(=O)N(c3nccc4sc(-c5ccc(C(=O)Nc6ccccc6)cc5)cc34)[C@@H]3CCCNC3)c(F)c2)nn1 [Example 523, 2-fluoro-4-(1-methyltriazol-4-yl)-N-[2-[4-(phenylcarbamoyl)phenyl]thieno[3,2-c]pyridin-4-yl]-N-[(3R)-3-piperidyl]benzamide]",0.92 µM,
Cn1cc(-c2ccc(C(=O)N(c3nccc4sc(-c5ccc(C(=O)NCCO)cc5)cc34)[C@@H]3CCCNC3)c(F)c2)nn1 [Example 524],> 10 µM,
"CNC(=O)/C=C/c1cc2c(N(C(=O)c3ccc(-n4nnc5cccnc54)cc3F)[C@@H]3CCCNC3)nccc2s1 [Example 525, 2-fluoro-N-[2-[(E)-3-(methylamino)-3-oxo-prop-1-enyl]thieno[3,2-c]pyridin-4-yl]-N-[(3R)-3-piperidyl]-4-(triazolo[4,5-b]pyridin-3-yl)benzamide]",0.79 µM,
"CN(C)C(=O)/C=C/c1cc2c(N(C(=O)c3ccc(-n4nnc5cccnc54)cc3F)[C@@H]3CCCNC3)nccc2s1 [Example 526, N-[2-[(E)-3-(dimethylamino)-3-oxo-prop-1-enyl]thieno[3,2-c]pyridin-4-yl]-2-fluoro-N-[(3R)-3-piperidyl]-4-(triazolo[4,5-b]pyridin-3-yl)benzamide]",0.87 µM,
"CNC(=O)c1nc(-c2cc3c(N(C(=O)c4ccc(-n5nnc6cccnc65)cc4F)[C@@H]4CCCNC4)nccc3s2)cs1 [Example 527, 4-[4-[[2-fluoro-4-(triazolo[4,5-b]pyridin-3-yl)benzoyl]-[(3R)-3-piperidyl]amino]thieno[3,2-c]pyridin-2-yl]-N-methyl-thiazole-2-carboxamide]",0.2 µM,
"CN(C)C(=O)c1ccc(-c2cc3c(N(C(=O)c4ccc(-c5cn(C)nn5)cc4F)[C@@H]4CCCNC4)nccc3s2)cc1 [Example 528, (R)—N-(2-(4-(dimethylcarbamoyl)phenyl)thieno[3,2-c]pyridin-4-yl)-2-fluoro-4-(1-methyl-1H-1,2,3-triazol-4-yl)-N-(piperidin-3-yl)benzamide]",0.87 µM,
"Cn1cc(-c2ccc(C(=O)N(c3nccc4sc(-c5ccc(-c6cc[nH]n6)cc5)cc34)[C@@H]3CCCNC3)c(F)c2)nn1 [Example 529, 2-fluoro-4-(1-methyltriazol-4-yl)-N-[(3R)-3-piperidyl]-N-[2-[4-(1H-pyrazol-3-yl)phenyl]thieno [3,2-c]pyridin-4-yl] benzamide]",0.14 µM,
"O=C(c1ccc(-n2nnc3cccnc32)cc1F)N(c1nccc2cc(-c3nn[nH]c3CO)ccc12)[C@@H]1CCCNC1 [Example 530, (R)-4-(3H-[1,2,3]triazolo[4,5-b]pyridin-3-yl)-2-fluoro-N-(6-(5-(hydroxymethyl)-1H-1,2,3-triazol-4-yl)isoquinolin-1-yl)-N-(piperidin-3-yl)benzamide]",1.6 µM,
"CNc1nccc(-c2cc3c(N(C(=O)c4ccc(-c5cn(C)nn5)cc4F)[C@@H]4CCCNC4)nccc3s2)n1 [Example 531, (R)-2-fluoro-4-(1-methyl-1H-1,2,3-triazol-4-yl)-N-(2-(2-(methylamino)pyrimidin-4-yl)thieno[3,2-c]pyridin-4-yl)-N-(piperidin-3-yl)benzamide]",0.43 µM,
"C=CC(=O)Nc1cccc(-c2cc3c(N(C(=O)c4ccc(-c5cn(C)nn5)cc4F)[C@@H]4CCCNC4)nccc3s2)c1 [Example 532, 2-fluoro-4-(1-methyltriazol-4-yl)-N-[(3R)-3-piperidyl]-N-[2-[3-(prop-2-enoylamino)phenyl]thieno[3,2-c]pyridin-4-yl]benzamide]",1.8 µM,
"Cn1cc(-c2ccc(C(=O)N(c3nccc4sc(-c5ccc6c(c5)C(=O)NC6)cc34)[C@@H]3CCCNC3)c(F)c2)nn1 [Example 533, 2-fluoro-4-(1-methyltriazol-4-yl)-N-[2-(3-oxoisoindolin-5-yl)thieno[3,2-c]pyridin-4-yl]-N-[(3R)-3-piperidyl]benzamide]",0.91 µM,
"CNS(=O)(=O)c1ccc(-c2cc3c(N(C(=O)c4ccc(-c5cn(C)nn5)cc4F)[C@@H]4CCCNC4)nccc3s2)cc1 [Example 534, (R)-2-fluoro-4-(1-methyl-1H-1,2,3-triazol-4-yl)-N-(2-(4-(N-methylsulfamoyl)phenyl)thieno[3,2-c]pyridin-4-yl)-N-(piperidin-3-yl)benzamide]",0.2 µM,
"CNS(=O)(=O)c1cccc(-c2cc3c(N(C(=O)c4ccc(-c5cn(C)nn5)cc4F)[C@@H]4CCCNC4)nccc3s2)c1 [Example 535, 2-fluoro-N-[2-[3-(methylsulfamoyl)phenyl]thieno[3,2-c]pyridin-4-yl]-4-(1-methyltriazol-4-yl)-N-[(3R)-3-piperidyl]benzamide]",1.2 µM,
"Cn1cc(-c2ccc(C(=O)N(c3nccc4sc(-c5ccc(S(=O)(=O)NCCN)cc5)cc34)[C@@H]3CCCNC3)c(F)c2)nn1 [Example 536, N-[2-[4-(2-aminoethylsulfamoyl)phenyl]thieno[3,2-c]pyridin-4-yl]-2-fluoro-4-(1-methyltriazol-4-yl)-N-[(3R)-3-piperidyl] benzamide]",> 10 µM,
"CC(C)NS(=O)(=O)c1ccc(-c2cc3c(N(C(=O)c4ccc(-c5cn(C)nn5)cc4F)[C@@H]4CCCNC4)nccc3s2)cc1 [Example 537, 2-fluoro-N-[2-[4-(isopropylsulfamoyl)phenyl]thieno[3,2-c]pyridin-4-yl]-4-(1-methyltriazol-4-yl)-N-[(3R)-3-piperidyl]benzamide]",1.6 µM,
"Cn1cc(-c2ccc(C(=O)N(c3nccc4sc(-c5ccc6c(c5)CNC6=O)cc34)[C@@H]3CCCNC3)c(F)c2)nn1 [Example 538, 2-fluoro-4-(1-methyltriazol-4-yl)-N-[2-(1-oxoisoindolin-5-yl)thieno[3,2-c]pyridin-4-yl]-N-[(3R)-3-piperidyl]benzamide]",0.92 µM,
"CC(C)NC(=O)c1cccc(-c2cc3c(N(C(=O)c4ccc(-c5cn(C)nn5)cc4F)[C@@H]4CCCNC4)nccc3s2)c1 [Example 539, 2-fluoro-N-[2-[3-(isopropylcarbamoyl)phenyl]thieno[3,2-c]pyridin-4-yl]-4-(1-methyltriazol-4-yl)-N-[(3R)-3-piperidyl]benzamide]",0.63 µM,
"Cn1cc(-c2ccc(C(=O)N(c3nccc4sc(-c5cccc(C(=O)Nc6ccccc6)c5)cc34)[C@@H]3CCCNC3)c(F)c2)nn1 [Example 540, 2-fluoro-4-(1-methyltriazol-4-yl)-N-[2-[3-(phenylcarbamoyl)phenyl]thieno[3,2-c]pyridin-4-yl]-N-[(3R)-3-piperidyl]benzamide]",,"IC50 (Homo sapiens, MV4-11, 72 h): 0.47 µM"
"CNC(=O)c1cccc(-c2cc3c(N(C(=O)c4ccc(-c5cn(C)nn5)cc4F)[C@@H]4CCCNC4)nccc3s2)c1 [Example 541, 2-fluoro-N-[2-[3-(methylcarbamoyl)phenyl]thieno[3,2-c]pyridin-4-yl]-4-(1-methyltriazol-4-yl)-N-[(3R)-3-piperidyl] benzamide]",,"IC50 (MV-4-11 cells, 72 h, Cell-Titer Glo, read-out: IC50): 0.64 µM"
"Cn1cc(-c2ccc(C(=O)N(c3nccc4sc(-c5cccc(C(=O)NCCO)c5)cc34)[C@@H]3CCCNC3)c(F)c2)nn1 [Example 542, 2-fluoro-N-[2-[3-(2-hydroxyethylcarbamoyl)phenyl]thieno[3,2-c]pyridin-4-yl]-4-(1-methyltriazol-4-yl)-N-[(3R)-3-piperidyl]benzamide]",6.3 µM,
"Cn1cc(-c2ccc(C(=O)N(c3nccc4sc(-c5ccc6cc[nH]c6c5)cc34)[C@@H]3CCCNC3)c(F)c2)nn1 [Example 543, 2-fluoro-N-[2-(1H-indol-6-yl)thieno [3,2-c]pyridin-4-yl]-4-(1-methyltriazol-4-yl)-N-[(3R)-3-piperidyl] benzamide]",0.31 µM,
Cn1cc(-c2ccc(C(=O)N(c3nccc4sc(-c5ccc6c(c5)NC(=O)C6)cc34)[C@@H]3CCCNC3)c(F)c2)nn1 [Example 544],1.8 µM,
Cn1cc(-c2ccc(C(=O)N(c3nccc4sc(-c5ccc6[nH]c(=O)[nH]c6c5)cc34)[C@@H]3CCCNC3)c(F)c2)nn1 [Example 545],5.3 µM,
"Cn1cc(-c2ccc(C(=O)N(c3nccc4sc(-c5ccc6[nH]ccc6c5)cc34)[C@@H]3CCCNC3)c(F)c2)nn1 [Example 546, 2-fluoro-N-[2-(1H-indol-5-yl)thieno[3,2-c]pyridin-4-yl]-4-(1-methyltriazol-4-yl)-N-[(3R)-3-piperidyl]benzamide]",0.092 µM,
"CC(=O)Nc1ccc(-c2cc3c(N(C(=O)c4ccc(-c5cn(C)nn5)cc4F)[C@@H]4CCCNC4)nccc3s2)cc1 [Example 547, (R)—N-(2-(4-acetamidophenyl)thieno[3,2-c]pyridin-4-yl)-2-fluoro-4-(1-methyl-1H-1,2,3-triazol-4-yl)-N-(piperidin-3-yl)benzamide]",0.48 µM,
"CNC(=S)Nc1ccc(-c2cc3c(N(C(=O)c4ccc(-c5cn(C)nn5)cc4F)[C@@H]4CCCNC4)nccc3s2)cc1 [Example 548, (R)-2-fluoro-4-(1-methyl-1H-1,2,3-triazol-4-yl)-N-(2-(4-(3-methylthioureido)phenyl)thieno[3,2-c]pyridin-4-yl)-N-(piperidin-3-yl)benzamide]",,"IC50 (Homo sapiens, MV4-11, 72 h): 0.24 µM"
"CNC(=O)C#Cc1cc2c(N(C(=O)c3ccc(-n4nnc5cccnc54)cc3F)[C@@H]3CCCNC3)nccc2s1 [Example 549, 2-fluoro-N-[2-[3-(methylamino)-3-oxo-prop-1-ynyl]thieno[3,2-c]pyridin-4-yl]-N-[(3R)-3-piperidyl]-4-(triazolo [4,5-b]pyridin-3-yl)benzamide]",1.5 µM,
